Assay results reported in the supplement of paper PMC4862054.

Key:
Conditions in all cases: incubation time: 72 h
MDA-MB-436 = assay: normalised viability (% of control), CellTiter-Blue; higher = more viable cells (about 100 = DMSO control)
Protocol: (§1)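 DSRT, CellTiter-Blue viability, 72 h incubation. Signal is normalised to DMSO and benzethonium chloride controls. Value is the normalised response at dose 3.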

BT-474 [1] = assay: as above
Protocol: as §1

MDA-MB-453 = assay: as above
Protocol: as §1

HCC1937 [2] = assay: as above
Protocol: as §1

HCC1143 [3] = assay: as above
Protocol: as §1

HDQ-P1 = assay: as above
Protocol: as §1

MDA-MB-468 = assay: as above
Protocol: as §1

HCC1599 = assay: as above
Protocol: as §1

Hs578T [4] = assay: as above
Protocol: as §1

SK-BR-3 [5] = assay: as above
Protocol: as §1

CAL-148 [6] = assay: as above
Protocol: as §1

CAL-120 = assay: as above
Protocol: as §1

MFM-223 = assay: as above
Protocol: as §1

DU-4475 [7] = assay: as above
Protocol: as §1

BT-549 [8] = assay: as above
Protocol: as §1

CAL-85-1 [9] = assay: as above
Protocol: as §1

MDA-MB-231 [10] = assay: as above
Protocol: as §1

CAL-51 = assay: as above
Protocol: as §1

BT-474 [11] = assay: drug sensitivity score (DSS), CellTiter-Glo (DSS (AUC-based score)); higher = stronger drug effect (viability inhibition or cytotoxicity); extreme values may be limits of the assay
Procedure, shortened: (§2)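 Breast cancer cell lines (20 µl suspension) were seeded into 384-well plates holding compound at 5 concentrations in 10-fold steps over a compound-specific 10,000-fold range, then incubated 72 h. CellTox Green fluorescence (485/520 nm) was read first, then CellTiter-Glo luminescence after 10 min at room temperature. Each plate was normalised to 0.1 % DMSO and a positive kill control. The drug sensitivity score was calculated from the area under the fitted dose-response curve.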

HCC1937 [12] = assay: as above
Procedure, shortened: as §2

HCC1143 [13] = assay: as above
Procedure, shortened: as §2

MCF-10A = assay: as above
Procedure, shortened: as §2

Hs578T [14] = assay: as above
Procedure, shortened: as §2

SK-BR-3 [15] = assay: as above
Procedure, shortened: as §2

CAL-148 [16] = assay: as above
Procedure, shortened: as §2

DU-4475 [17] = assay: as above
Procedure, shortened: as §2

BT-549 [18] = assay: as above
Procedure, shortened: as §2

CAL-85-1 [19] = assay: as above
Procedure, shortened: as §2

MDA-MB-231 [20] = assay: as above
Procedure, shortened: as §2

| Structure (SMILES) | drug sensitivity score (BT-474 [11]) | drug sensitivity score (HCC1937 [12]) | drug sensitivity score (HCC1143 [13]) | drug sensitivity score (MCF-10A) | drug sensitivity score (Hs578T [14]) | drug sensitivity score (SK-BR-3 [15]) | drug sensitivity score (CAL-148 [16]) | drug sensitivity score (DU-4475 [17]) | drug sensitivity score (BT-549 [18]) | drug sensitivity score (CAL-85-1 [19]) | drug sensitivity score (MDA-MB-231 [20]) | normalised viability (MDA-MB-436; 10 nM) | normalised viability (BT-474 [1]; 10 nM) | normalised viability (MDA-MB-453; 1 nM) | normalised viability (HCC1937 [2]; 10 nM) | normalised viability (HCC1143 [3]; 10 nM) | normalised viability (HDQ-P1; 1 nM) | normalised viability (MDA-MB-468; 10 nM) | normalised viability (HCC1599; 10 nM) | normalised viability (Hs578T [4]; 10 nM) | further results |
| --- | --- | --- | --- | --- | --- | --- | --- | --- | --- | --- | --- | --- | --- | --- | --- | --- | --- | --- | --- | --- | --- |
| O=C(c1cc(Cc2n[nH]c(=O)c3ccccc23)ccc1F)N1CCN(C(=O)C2CC2)CC1 [Olaparib] | 0 | 0 | 0 | 0 | 0 | 0 | 2.94 | 0 | 1.44 | 0 | 0 | – | – | – | – | – | – | – | – | – | normalised viability (MDA-MB-436; 100 nM): 107%; normalised viability (BT-474 [1]; 100 nM): 105%; normalised viability (MDA-MB-453; 10 nM): 97.8%; normalised viability (HCC1937 [2]; 100 nM): 77.9%; normalised viability (HCC1143 [3]; 100 nM): 88.2%; normalised viability (HDQ-P1; 10 nM): 99.4%; normalised viability (MDA-MB-468; 100 nM): 99.8%; normalised viability (HCC1599; 100 nM): 114%; normalised viability (Hs578T [4]; 100 nM): 80.9%; normalised viability (SK-BR-3 [5]; 100 nM): 81.2%; normalised viability (CAL-148 [6]; 10 nM): 83.3%; normalised viability (CAL-120; 100 nM): 76.2%; normalised viability (MFM-223; 100 nM): 103%; normalised viability (DU-4475 [7]; 10 nM): 97.5%; normalised viability (BT-549 [8]; 100 nM): 102%; normalised viability (CAL-85-1 [9]; 10 nM): 88.1%; normalised viability (MDA-MB-231 [10]; 100 nM): 76.5%; normalised viability (CAL-51; 10 nM): 101% |
| Cc1cc2c(F)c(Oc3ncnn4cc(OC[C@@H](C)O)c(C)c34)ccc2[nH]1 [Brivanib] | 0 | 0 | 0 | 0 | 0 | 0 | 0 | 0 | 0 | 0 | 0 | 104% | 102% | 102% | 97.2% | 78.8% | 94.8% | 103% | 96.2% | 88.9% | normalised viability (SK-BR-3 [5]; 10 nM): 75.5%; normalised viability (CAL-148 [6]; 1 nM): 82.3%; normalised viability (CAL-120; 10 nM): 88.2%; normalised viability (MFM-223; 10 nM): 90.1%; normalised viability (DU-4475 [7]; 1 nM): 96.3%; normalised viability (BT-549 [8]; 10 nM): 93.9%; normalised viability (CAL-85-1 [9]; 1 nM): 105%; normalised viability (MDA-MB-231 [10]; 10 nM): 98.1%; normalised viability (CAL-51; 1 nM): 91.8% |
| CC(C)C[C@H](NC(=O)[C@H](CCc1ccccc1)NC(=O)CN1CCOCC1)C(=O)N[C@@H](Cc1ccccc1)C(=O)N[C@@H](CC(C)C)C(=O)[C@@]1(C)CO1 [Carfilzomib] | 21.8 | 20.6 | 23.5 | 12.2 | 22.9 | 26.9 | 17.4 | 15.4 | 29.5 | 25.2 | 21.4 | 73.5% | 87.2% | 96.8% | 22.8% | 53.4% | 109% | 19.5% | 109% | 13.8% | normalised viability (SK-BR-3 [5]; 10 nM): 33.2%; normalised viability (CAL-148 [6]; 1 nM): 98.5%; normalised viability (CAL-120; 10 nM): 46.2%; normalised viability (MFM-223; 10 nM): 14.8%; normalised viability (DU-4475 [7]; 1 nM): 93.5%; normalised viability (BT-549 [8]; 10 nM): 12.5%; normalised viability (CAL-85-1 [9]; 1 nM): 104%; normalised viability (MDA-MB-231 [10]; 10 nM): 28.1%; normalised viability (CAL-51; 1 nM): 106% |
| CO[C@H]1C[C@@H]2CC[C@@H](C)[C@@](O)(O2)C(=O)C(=O)N2CCCC[C@H]2C(=O)O[C@H]([C@H](C)C[C@@H]2CC[C@@H](O)[C@H](OC)C2)CC(=O)[C@H](C)/C=C(\C)[C@@H](O)[C@@H](OC)C(=O)[C@H](C)C[C@H](C)/C=C/C=C/C=C/1C [Sirolimus] | 2.79 | 3.34 | 5.31 | 0 | 7.08 | 5.69 | 6.47 | 1.94 | 9.21 | 8.85 | 0 | 82.5% | 65.9% | 54.3% | 61.5% | 67.9% | 76.7% | 65.4% | 73.8% | 58.2% | normalised viability (SK-BR-3 [5]; 10 nM): 59.1%; normalised viability (CAL-148 [6]; 1 nM): 74.8%; normalised viability (CAL-120; 10 nM): 54.5%; normalised viability (MFM-223; 10 nM): 49%; normalised viability (DU-4475 [7]; 1 nM): 85.1%; normalised viability (BT-549 [8]; 10 nM): 53%; normalised viability (CAL-85-1 [9]; 1 nM): 68.9%; normalised viability (MDA-MB-231 [10]; 10 nM): 67.7%; normalised viability (CAL-51; 1 nM): 62.6% |
| O=C(O)CC[C@H]1CC[C@@](c2cc(F)ccc2F)(S(=O)(=O)c2ccc(Cl)cc2)CC1 [MK-0752] | 0 | 0 | 0 | 0 | 0 | 0 | 0 | 0 | 0 | 0 | 0 | 103% | 114% | 111% | 88.5% | 98% | 96.2% | 97.6% | 106% | 88.6% | normalised viability (SK-BR-3 [5]; 10 nM): 93.3%; normalised viability (CAL-148 [6]; 1 nM): 107%; normalised viability (CAL-120; 10 nM): 95.1%; normalised viability (MFM-223; 10 nM): 97.1%; normalised viability (DU-4475 [7]; 1 nM): 105%; normalised viability (BT-549 [8]; 10 nM): 104%; normalised viability (CAL-85-1 [9]; 1 nM): 96%; normalised viability (MDA-MB-231 [10]; 10 nM): 98%; normalised viability (CAL-51; 1 nM): 96.3% |
